# Values of other authors in paper PMC4894568 (PLoS ONE, 2016).
# Tests used:
# Influenza A virus [1] = conditions: mouse, in vivo
# Influenza A virus [2] = system: Influenza A virus
substance,measurement,setting,value
LL-37,infection with Influenza A virus in an infection model,Influenza A virus [1],prevented or inhibited the infection
same,infectivity of Influenza A virus,Influenza A virus [2],influenced the infectivity
